US7732603B2, “Organic compounds as agents for the treatment of aldosterone mediated conditions” (Novartis AG, priority 2002, dated 2010)
Where a name gives a salt, the structure may show the parent alone.

Structure (SMILES) | melting point
Cl.N#Cc1ccc(C2C(=O)N(Cc3ccc(Cl)cc3)Cc3cncn32)cc1 (stereo not shown) | 245 to 246 °C
Cl.N#Cc1ccc(C2C(=O)N(Cc3ccc(C(F)(F)F)cc3)Cc3cncn32)cc1 (stereo not shown) | 234 to 236 °C
Cl.N#Cc1ccc(C2C(=O)N(Cc3cccc(C(F)(F)F)c3)Cc3cncn32)cc1 (stereo not shown) | 250 to 252 °C
CN1Cc2cncn2C(c2ccc(C#N)cc2)C1=O.Cl (stereo not shown) | 222 to 224 °C
Cl.O=C1C(c2ccc(Br)cc2)n2cncc2CN1CC1CC1 (stereo not shown) | 223 to 225 °C
Cl.O=C1C(c2ccc(Br)cc2)n2cncc2CN1Cc1ccc(Cl)cc1 (stereo not shown) | 158 to 159 °C
Cl.O=C1C(c2ccc(Br)cc2)n2cncc2CN1Cc1ccc(C(F)(F)F)cc1 (stereo not shown) | 113 to 114 °C
COc1ccc(N2Cc3cncn3C(c3ccc(Br)cc3)C2=O)cc1.Cl (stereo not shown) | 149 to 150 °C
Cl.O=C1C(c2ccc(Br)cc2)n2cncc2CN1CCc1ccc(F)cc1 (stereo not shown) | 136 to 138 °C
Cl.O=C1C(c2ccc(Br)cc2)n2cncc2CN1Cc1ccc(F)cc1 (stereo not shown) | 205 to 207 °C
CN1Cc2cncn2C(c2cccc(Br)c2)C1=O.Cl (stereo not shown) | 265 °C (dec.)
O=C(O)C(=O)O.O=C1C(c2cccc(Br)c2)n2cncc2CN1C1CCCCC1 (stereo not shown) | 129 to 131 °C
COc1ccc(CN2Cc3cncn3C(c3cccc(Br)c3)C2=O)cc1.Cl (stereo not shown) | 246 to 248 °C
Cl.O=C1C(c2cccc(Br)c2)n2cncc2CN1Cc1ccc(C(F)(F)F)cc1 (stereo not shown) | 269 to 271 °C
Cl.O=C1C(c2cccc(Br)c2)n2cncc2CN1Cc1cccc(C(F)(F)F)c1 (stereo not shown) | 246 to 248 °C
COc1ccc(CCN2Cc3cncn3C(c3cccc(Br)c3)C2=O)cc1.Cl (stereo not shown) | 202 to 204 °C
Cl.O=C1C(c2cccc(Br)c2)n2cncc2CN1CCc1ccc(Cl)cc1 (stereo not shown) | 225 to 226 °C
Cl.O=C1C(c2cccc(Br)c2)n2cncc2CN1CCc1cccc(Cl)c1 (stereo not shown) | 184 to 186 °C
Cc1ccc(CCN2Cc3cncn3C(c3cccc(Br)c3)C2=O)cc1.Cl (stereo not shown) | 197 to 199 °C

Structure (SMILES) | melting point
Cl.O=C1C(c2cccc(Br)c2)n2cncc2CN1CCc1ccc(F)cc1 (stereo not shown) | 179 to 180 °C
Cl.O=C1C(c2cccc(Br)c2)n2cncc2CN1Cc1cccs1 (stereo not shown) | 233 to 235 °C
Cl.O=C1C(c2cccc(Br)c2)n2cncc2CN1Cc1ccco1 (stereo not shown) | 215 to 218 °C
Cl.N#Cc1ccc(C2C(=O)N(CCc3ccc(F)cc3)Cc3cncn32)cc1 (stereo not shown) | 160 to 162 °C
Cl.N#Cc1cccc(C2C(=O)N(CCc3ccc(F)cc3)Cc3cncn32)c1 (stereo not shown) | 221 to 223 °C
COc1ccc(CN2Cc3cncn3C(c3ccc(-c4ccc(Cl)cc4)cc3)C2=O)cc1.Cl (stereo not shown) | 270 to 273 °C
Cl.O=C1C(c2ccc(-c3ccsc3)cc2)n2cncc2CN1CC1CC1 (stereo not shown) | 217 to 219 °C
Cl.Cl.N#Cc1ccc(C2C(=O)N(CCCN3CCOCC3)Cc3cncn32)cc1 (stereo not shown) | 246 to 248 °C
CC1(c2ccc(Br)cc2)C(=O)N(CC2CC2)Cc2cncn21.Cl (stereo not shown) | 228 to 230 °C
CC1(c2cccc(Br)c2)C(=O)N(CC2CC2)Cc2cncn21.Cl (stereo not shown) | 234 to 236 °C
CC1(c2ccc(Br)cc2)C(=O)N(Cc2ccc(F)cc2)Cc2cncn21.Cl (stereo not shown) | 235 to 237 °C
C[C@H](c1ccccc1)N1Cc2cncn2C(c2cccc(Br)c2)C1=O (single isomer, unassigned; (+)) [Example 58] | 45 to 50 °C
C[C@H](c1ccccc1)N1Cc2cncn2C(c2ccc(Br)cc2)C1=O (single isomer, unassigned; (+)) [Example 60] | 147 to 148 °C
C[C@@H](c1ccccc1)N1Cc2cncn2C(c2cccc(Br)c2)C1=O (single isomer, unassigned; (-)) [Example 59] | 55 to 70 °C
C[C@@H](c1ccccc1)N1Cc2cncn2C(c2ccc(Br)cc2)C1=O (single isomer, unassigned; (-)) [Example 61] | 167 to 168 °C
C[C@@H](c1ccccc1)N1Cc2cncn2C(c2ccc(C#N)cc2)C1=O (single isomer, unassigned; (-)) [Example 62] | 157 to 158 °C
C=CCN1Cc2cncn2C(c2ccc(C#N)cc2)C1=O (stereo not shown) [Example 4, 4-(7-Allyl-6-oxo-5,6,7,8-tetrahydro-imidazo[1,5-a]pyrazin-5-yl)-benzonitrile] | 107 to 109 °C
CCCN1Cc2cncn2C(c2ccc(C#N)cc2)C1=O (stereo not shown) [Example 5, 4-(6-Oxo-7-propyl-5,6,7,8-tetrahydro-imidazo[1,5-a]pyrazin-5-yl)-benzonitrile] | 97 to 98 °C
CC(C)N1Cc2cncn2C(c2ccc(C#N)cc2)C1=O (stereo not shown) [Example 6, 4-(7-Isopropyl-6-oxo-5,6,7,8-tetrahydro-imidazo[1,5-a]pyrazin-5-yl)-benzonitrile] | 122 to 124 °C

The next lines start with the values.

melting point | Structure (SMILES)
275 to 277 °C | Cc1cccc(CN2Cc3cncn3C(c3ccc(C#N)cc3)C2=O)c1.Cl (stereo not shown)
249 to 251 °C | Cl.O=C1C(c2ccccc2)n2cncc2CN1Cc1ccccc1 (stereo not shown)
252 to 254 °C | CN1Cc2cncn2C(c2ccccc2)C1=O.Cl (stereo not shown)
250 °C (dec.) | Cl.O=C1C(c2ccc(Br)cc2)n2cncc2CN1Cc1ccccc1 (stereo not shown)
249 to 251 °C | Cl.O=C1C(c2cccc(Br)c2)n2cncc2CN1Cc1ccccc1 (stereo not shown)
246 to 248 °C | Cl.O=C1C(c2cccc(Br)c2)n2cncc2CN1Cc1ccc(F)cc1 (stereo not shown)
268 to 270 °C | Cl.O=C1C(c2cccc(Br)c2)n2cncc2CN1Cc1ccc(Cl)cc1 (stereo not shown)
265 to 267 °C | Cc1ccc(CN2Cc3cncn3C(c3cccc(Br)c3)C2=O)cc1.Cl (stereo not shown)
240 to 243 °C | Cl.O=C1C(c2cccc(Br)c2)n2cncc2CN1Cc1cccc(F)c1 (stereo not shown)
248 to 249 °C | Cc1cccc(CN2Cc3cncn3C(c3cccc(Br)c3)C2=O)c1.Cl (stereo not shown)
205 to 207 °C | Cl.O=C1C(c2cccc(Br)c2)n2cncc2CN1CCc1ccccc1 (stereo not shown)
201 to 204 °C | Cl.O=C1Cn2cncc2CN1Cc1ccccc1
260 to 263 °C | Cc1ccc(CN2Cc3cncn3C(c3cccc(C#N)c3)C2=O)cc1.Cl (stereo not shown)
260 to 263 °C | Cl.N#Cc1cccc(C2C(=O)N(Cc3ccc(F)cc3)Cc3cncn32)c1 (stereo not shown)
236 to 238 °C | Cl.N#Cc1cccc(C2C(=O)N(Cc3ccc(Cl)cc3)Cc3cncn32)c1 (stereo not shown)
246 to 248 °C | COc1ccc(CN2Cc3cncn3C(c3cccc(C#N)c3)C2=O)cc1.Cl (stereo not shown)
203 to 205 °C | Cl.N#Cc1cccc(C2C(=O)N(CCc3ccccc3)Cc3cncn32)c1 (stereo not shown)
225 to 227 °C | Cl.N#Cc1cccc(C2C(=O)N(CC3CC3)Cc3cncn32)c1 (stereo not shown)
235 to 237 °C | Cl.O=C1C(c2cccc(-c3ccc(F)cc3)c2)n2cncc2CN1Cc1ccccc1 (stereo not shown)
232 to 234 °C | Cl.O=C1C(c2cccc(-c3ccccc3)c2)n2cncc2CN1Cc1ccccc1 (stereo not shown)
236 to 238 °C | COC(=O)c1ccc(C2C(=O)N(Cc3ccccc3)Cc3cncn32)cc1.Cl (stereo not shown)
230 to 232 °C | CC1(c2ccc(C#N)cc2)C(=O)N(Cc2ccccc2)Cc2cncn21.Cl (stereo not shown)
223 to 225 °C | Brc1ccc(C2CN(Cc3ccccc3)Cc3cncn32)cc1 (stereo not shown) (as salt: toluene sulfonate) [Example 91, 5-(4-Bromophenyl)-7-benzyl-5,6,7,8-tetrahydro-imidazo[1,5-a]pyrazine p-toluene sulfonate]
